The values that follow come from patent US20090149482A1, “STEREOCHEMICALLY DEFINED DIPEPTIDE ESTERS OF ANTIVIRAL AGENTS FOR ENHANCED OCULAR TREATMENT” (priority 2001, published 2009).

Data set [1] concerns oligopeptide transporter on the rabbit cornea. The note with it: +10 mM of the ester.
Data set [2] in a line: in vitro. The note with it: human, Caco-2, pH 7.4.
The next data set relates to Caco-2 cell suspension. The settings on record: Caco-2 cell suspension at pH 7.4; * = no intact drug detected during the experiment.
In another data set the target is T1, hPEPT1 (Homo sapiens, UniProt P46059).
T1 construct: endogenous in cells; host or cells: Caco-2 (human colon carcinoma, ATCC)
T1 sequence (P46059 1-708): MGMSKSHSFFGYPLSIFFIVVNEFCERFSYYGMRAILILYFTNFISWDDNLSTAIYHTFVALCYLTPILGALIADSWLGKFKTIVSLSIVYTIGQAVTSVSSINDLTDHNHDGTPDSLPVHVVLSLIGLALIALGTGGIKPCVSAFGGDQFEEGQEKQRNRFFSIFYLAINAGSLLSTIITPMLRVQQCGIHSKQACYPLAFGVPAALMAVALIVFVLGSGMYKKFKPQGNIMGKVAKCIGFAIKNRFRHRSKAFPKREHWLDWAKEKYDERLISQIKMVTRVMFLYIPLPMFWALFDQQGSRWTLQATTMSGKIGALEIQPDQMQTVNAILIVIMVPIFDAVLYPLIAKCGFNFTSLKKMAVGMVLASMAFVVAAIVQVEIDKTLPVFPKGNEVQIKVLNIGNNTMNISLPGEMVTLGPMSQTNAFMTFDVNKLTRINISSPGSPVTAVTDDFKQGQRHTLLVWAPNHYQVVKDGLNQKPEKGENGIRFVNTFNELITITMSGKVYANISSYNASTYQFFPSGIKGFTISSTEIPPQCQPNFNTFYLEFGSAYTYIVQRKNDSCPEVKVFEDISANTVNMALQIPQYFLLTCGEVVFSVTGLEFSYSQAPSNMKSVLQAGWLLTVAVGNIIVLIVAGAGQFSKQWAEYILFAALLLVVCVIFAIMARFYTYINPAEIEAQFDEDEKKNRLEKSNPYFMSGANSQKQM
In words: [3H] Glycylsarcosine uptake and its inhibition in Caco-2 cells (affinity towards peptide transporter). The data set is classed as cell-based. The note with it: for Ki: read-out: Ki. (Caco-2 cells form a polarised layer with tight junctions and transporters.)

A short description of data set [3]: Corneal permeation across freshly excised rabbit cornea. The settings on record: New Zealand albino.
The nature of the next data set: Aqueous solubility. Format: physicochemical.
For data set [4] the following is noted: New Zealand albino, rabbit.
Data set [5] relates to rabbit corneal cell line (SIRC). The settings on record: SIRC cells.
Another data set has as its system EBV. Description: In vitro antiviral screening, VCA Elisa. The data set is classed as cell-based, epstein-barr virus. The note with it: human gammaherpesvirus 4; EBV, VCA Elisa.
The test system of another data set is HSV-1. In words: In vitro antiviral screening, CPE inhibition in HFF cells. The data set is classed as cell-based, herpes simplex virus 1. The note with it: Human alphaherpesvirus 1, HFF.
The subject of a further data set is HSV-2. The data set is described as above. Format: cell-based, herpes simplex virus 2. The note with it: Human alphaherpesvirus 2, HFF; HSV-2, CPE Inhibition.
The nature of data set [6]: in vitro. The note with it: New Zealand albino, rabbit.

In brackets after ≈: the same amount, converted by molar mass. Like-named read-outs stand apart in the source and are kept apart here.

Regarding `CC(C)C(NC(=O)C(N)Cc1ccc(O)cc1)C(=O)OCCOCn1cnc2c(=O)[nH]c(N)nc21` (stereo not drawn) [Tyr-Val-ACV], the “Papp (% Control) of [3H] Val-ACV” value in data set [1] is 31.1 (±9.5) % Control. The half-life – broadly, how long it takes for the measured level to halve – at 0.2 mM in “in vitro [2]” came to 6.9 ± 0.3 min. The “10^2 × kobs” value with Caco-2 cell suspension is reported as 10.1 ± 0.46 min^−1mg^−1 protein. For the same molecule, at hPEPT1 (Gly-Sar with drug (10 mM), Lineweaver-Burk), the “Vmax of Gly-Sar uptake in presence of the drug” value worked out at 0.091 ± 0.07 µmol/min/mg. The Ki – broadly, a measure of affinity in units of concentration, obtained from inhibition or displacement – at hPEPT1 (Lineweaver-Burk) was found to be 4110 ± 320 µM; at hPEPT1 (Michaelis-Menten) it was 4960 ± 970 µM. Besides, the “hydrolytic rate constant k” value runs as follows: (Aqueous Humor) 2.3 (±0.11) k × 10^3 min^−1 mg^−1 protein; (Cornea homogenate) 4.9 (±0.69) k × 10^3 min^−1 mg^−1 protein; (Iris-Ciliary Body homogenate) 5.3 (±0.74) k × 10^3 min^−1 mg^−1 protein; (Lens homogenate) 3.1 (±0.63) k × 10^3 min^−1 mg^−1 protein; (Vitreous Humor) 1.7 (±0.56) k × 10^3 min^−1 mg^−1 protein. Further, the apparent permeability coefficient (Papp) (usually a coefficient for how fast a substance crosses the barrier) at 3 h in data set [3] was 7.19 ×10⁻⁶ cm/s.
As to `Nc1nc2c(ncn2COCCO)c(=O)[nH]1` [ACV, 2-amino-1,9-dihydro-9-[(2-hydroxyethoxy)methyl]-6H-purin-6-one], the solubility (usually the dissolved amount per volume that the medium holds) in the data set “Aqueous solubility” (25° C.) is 2500 µg/mL (≈ 11.1 mM); in the data set “Aqueous solubility” (aqueous medium, 37° C., read-out: saturable solubility), 2000 µg/mL (≈ 8.88 mM). Also, the Papp in data set [4] is 4.24 ×10⁻⁶ cm/s; in the data set “in vitro [6]”, 4.24 ± 1.41 ×10⁻⁶ cm/s. Further, the percent survival is listed as 94.71% in [5] (0.025 mM); 89.41% in data set [5] (0.1 mM); 69.81% in data set [5] (0.5 mM); 57.37% in data set [5] (1 mM); 49.12% in [5] (5 mM). Further, the “% viable cells” value in data set [5] (5 mM) is 49.1±4.2%. Moreover, the EC50 in the data set on EBV amounted to 7.5 µM; in the data set on HSV-1 (read-out: EC50 (concentration required to inhibit viral cytopathogenicity by 50%), HSV-1, CPE Inhibition), 7.1 µM; with HSV-1 (HSV-1, running text, read-out: EC50 against HSV-1), 7.1 µM; in the data set on HSV-2, 6.6 µM. For the same molecule, the “effect on the uptake of [3H] Gly-Sar” value on hPEPT1 (Caco-2, pH 6.0, 10 minutes) is reported as “did not inhibit”.
